Laboratory results taken from ChEMBL document CHEMBL3885861, “Open TG-GATES”.

Organism: Rattus norvegicus
Experiment: Open TG-GATES - Regimen: Daily Repeat
Assay type: toxicity, organism-based, Sprague-Dawley
Design: regimen Daily Repeat, gender Male, age 6 weeks
Conditions: in vivo, po, 1 mg/kg, route gavage, dose level Low; for APTT / Bas / Eos / Fbg / Ht / Lym / MCHC / MCV / Mono / Neu / PT / Plat / RBC / Ret / WBC / Hb / MCH: tissue Blood; for KIDNEY_L / KIDNEY_R / KIDNEY_TOTAL: tissue Kidney; for LIVER: tissue Liver
[1] = 72 h, tissue Plasma, time 3 day
[2] = […], tissue Plasma, time 14 day
[3] = […], tissue Plasma, time 28 day

`C#C[C@]1(O)CC[C@H]2[C@@H]3CCc4cc(O)ccc4[C@H]3CC[C@@]21C` [ETHINYL ESTRADIOL] showed a TERMINAL_BW (72 h, time 3 day) of 204.6 g, an APTT (72 h, time 3 day) of 17 s and a Bas (72 h, time 3 day) of 0%. It also gave an Eos (72 h, time 3 day) of 1%, a Fbg (72 h, time 3 day) of 309.6 mg/dL and a Ht (72 h, time 3 day) of 39.1%. The Lym (72 h, time 3 day) was 82.4%, the MCHC (72 h, time 3 day) was 34.2% and the MCV (72 h, time 3 day) was 62.3 fL. It also gave a Mono (72 h, time 3 day) of 3.6%, a Neu (72 h, time 3 day) of 12.6% and a PT (72 h, time 3 day) of 13.1 s. It also gave a Plat (72 h, time 3 day) of 107.6 x10_4/uL, an RBC (72 h, time 3 day) of 627.4 x10_4/ul and a Ret (72 h, time 3 day) of 5.1%. The WBC (72 h, time 3 day) was 72 x10_2/uL, the KIDNEY_L (72 h, time 3 day) was 1 g and the KIDNEY_R (72 h, time 3 day) was 1 g. The KIDNEY_TOTAL (72 h, time 3 day) was 2 g, the LIVER (72 h, time 3 day) was 11.7 g and the ALP [1] was 2115.4 IU/L. For the same compound, the ALT [1] was 41.2 IU/L, the AST [1] was 84.2 IU/L and the BUN [1] was 9.4 mg/dL. The CRE [1] was 0.2 mg/dL, the Ca [1] was 10.6 mg/dL and the Cl [1] was 107.4 meq/L. It also gave a DBIL [1] of 0.038 mg/dL, an IP [1] of 7.4 mg/dL and a K [1] of 4 meq/L. It also gave an LDH [1] of 95.4 IU/L, a Na [1] of 144 meq/L and a PL [1] of 82.6 mg/dL. It also gave an RALB [1] of 2.6 g/dL, a TBIL [1] of 0.07 mg/dL and a TC [1] of 29.4 mg/dL. The TG [1] was 73.6 mg/dL, the TP [1] was 5.6 g/dL and the gamma-GTP [1] was 1.2 IU/L. The TERMINAL_BW ([…], time 14 day) was 243.2 g, the TERMINAL_BW ([…], time 28 day) was 264.8 g and the APTT ([…], time 14 day) was 23 s. For the same compound, the Bas ([…], time 14 day) was 0%, the Eos ([…], time 14 day) was 1% and the Fbg ([…], time 14 day) was 328.6 mg/dL. For the same compound, the Hb ([…], time 14 day) was 13.9 g/dL, the Ht ([…], time 14 day) was 38.9% and the Lym ([…], time 14 day) was 77.6%. For the same compound, the MCH ([…], time 14 day) was 20.1 pg, the MCHC ([…], time 14 day) was 35.6% and the MCV ([…], time 14 day) was 56.3 fL. For the same compound, the PT ([…], time 14 day) was 13.5 s, the Plat ([…], time 14 day) was 120.8 x10_4/uL and the RBC ([…], time 14 day) was 690.2 x10_4/ul. The Ret ([…], time 14 day) was 1.8%, the WBC ([…], time 14 day) was 80.9 x10_2/uL and the APTT ([…], time 28 day) was 27.7 s. For the same compound, the Bas ([…], time 28 day) was 0%, the Eos ([…], time 28 day) was 1% and the Fbg ([…], time 28 day) was 328.6 mg/dL. The Hb ([…], time 28 day) was 14.3 g/dL, the Ht ([…], time 28 day) was 39% and the Lym ([…], time 28 day) was 77.6%. For the same compound, the MCH ([…], time 28 day) was 19.9 pg, the MCHC ([…], time 28 day) was 36.7% and the MCV ([…], time 28 day) was 54.2 fL. The Mono ([…], time 28 day) was 2.6%, the Neu ([…], time 28 day) was 18.8% and the PT ([…], time 28 day) was 13.6 s. For the same compound, the Plat ([…], time 28 day) was 113.5 x10_4/uL, the RBC ([…], time 28 day) was 720.8 x10_4/ul and the Ret ([…], time 28 day) was 2.4%. For the same compound, the WBC ([…], time 28 day) was 82.1 x10_2/uL, the KIDNEY_L ([…], time 14 day) was 1 g and the KIDNEY_R ([…], time 14 day) was 1 g. It also gave a KIDNEY_TOTAL ([…], time 14 day) of 2 g, a KIDNEY_L ([…], time 28 day) of 1 g and a KIDNEY_R ([…], time 28 day) of 1 g. It also gave a KIDNEY_TOTAL ([…], time 28 day) of 2 g, an LIVER ([…], time 14 day) of 13.6 g and an LIVER ([…], time 28 day) of 14.4 g. It also gave an ALP [2] of 1995.4 IU/L, an ALT [2] of 41 IU/L and an AST [2] of 53.8 IU/L. It also gave a BUN [2] of 13.2 mg/dL, a CRE [2] of 0.2 mg/dL and a Cl [2] of 105.8 meq/L. It also gave a DBIL [2] of 0.03 mg/dL, an IP [2] of 5.7 mg/dL and a K [2] of 3.9 meq/L. It also gave an LDH [2] of 60.8 IU/L, a Na [2] of 143.8 meq/L and a PL [2] of 105.4 mg/dL. For the same compound, the RALB [2] was 2.9 g/dL, the TBIL [2] was 0.084 mg/dL and the TC [2] was 33.4 mg/dL. For the same compound, the TG [2] was 68 mg/dL, the TP [2] was 6.5 g/dL and the ALP [3] was 1546.2 IU/L. The ALT [3] was 37.8 IU/L, the AST [3] was 50.6 IU/L and the BUN [3] was 14 mg/dL. For the same compound, the CRE [3] was 0.3 mg/dL, the Ca [3] was 10.8 mg/dL and the Cl [3] was 105.4 meq/L. It also gave a DBIL [3] of 0.036 mg/dL, an IP [3] of 5.3 mg/dL and a K [3] of 3.6 meq/L. For the same compound, the LDH [3] was 38 IU/L, the Na [3] was 144 meq/L and the PL [3] was 147 mg/dL. The RALB [3] was 3 g/dL.
